Laboratory results taken from US6342602B1, “Aryl or heteroaryl amides of tetrahydronaphthalene, chroman, thichroman and 1,2,3,4-tetrahydroquinolinecarboxlic acids, having an electron withdrawing substituent in the aromatic or heteroaromatic moiety, having retinoid-like biological activity” (Allergan Sales, Inc., priority 1995, dated 2002).

Key:
RPMI 8226 = test: Cancer cell line assay, incorporation of 3H-thymidine; format: cell-based, human; conditions: 10^−11 to 10^−6 molar concentration range, 96 hours
Experimental: (§1) All trans-Retinoic acid (t-RA) (Sigma Chemicals Co., St. Louis, M.) was stored at −70° C. Prior to each experimet the compound was dissolved in 100% ethanol at 1 mM and diluted in culture medium immediately before use. All experiments were performed in subdued light. Controls were assayed using the same concentration of ethanol as present in the experimental plates and this concentration of diluent had no effect in either assay.
All cell lines, RPMI 8226, ME-180 and AML-193 were obtained from the American Type Culture Collection (ATCC, Rockville, Md.). RPMI 8226 is a human hematopoietic cell line obtained from the peripheral blood of a patient with multiple myeloma. The cells resemble the lymphoblastoid cells of other human lymphocyte cell lines and secrete […] light chains of immunoglobulin. RPMI-8226 cells are grown in RPMI medium (Gibco) supplemented with 10% fetal bovine serum, glutamine and antibiotics. The cells were maintained as suspension cultures grown at 37° C. in a humidified atmosphere of 5% CO2 in air. The cells were diluted to a concentration of 1×10^5/ml twice a week.
The method used for determination of the incorporation of radiolabeled thymidine was adapted from the procedure described by Shrivastav et al. RPMI-8226 cells were plated in a 96 well round bottom microtiter plate (Costar) at a density of 1,000 cells/well. To appropriate wells, retinoid test compounds were added at the final concentrations indicated for a final volume of 150 μl/well. The plates were incubated for 96 hours at 37° C. in a humidified atmosphere of 5% CO2 in air. Subsequently, 1 μCi of (5′-^3H]-thymidine (Amersham, U.K. 43 Ci/mmol specific activity) in 25 μl culture medium was added to each well and the cells were incubated for an additional 6 hours. The cultures were further processed as described below.
(§2) All cells lines were then processed as follows: the cellular DNA was precipitated with […] trichloroacetic acid onto glass fiber filter mats using a SKATRON multi-well cell harvester (Skatron Instruments, Sterling Va.). Radioactivity incorporated into DNA, as a direct measurement of cell growth, was measured by liquid scintillation counting. The numbers represent the mean disintegrations per minute of incorporated thymidine from triplicate wells±SEM.

AML-193 = test: as above; format: cell-based; conditions: 10^−11 to 10^−6 molar concentration range, 96 hours
Experimental: as §1
AML-193 was established from the blast cells classified as M5 Acute Monocyte Leukemia. The growth factor, […] (GM-CSF) was required to establish this cell line and growth factors are necessary for its continuous proliferation in chemically defined medium. AML-193 cells were grown and maintained in Iscove's modified Dulbeccous medium supplemented with 10% fetal bovine serum, glutamine and antibiotics with 5 μg/ml insulin (Sigma Chemical Co.) and 2 ng/ml rh GM-CSF (R and D Systems). The cells were diluted to a concentration of 3×10^5/ml twice a week.
ME-180 wells, harvested by trypsinization were plated in a 96 well flat bottom microtiter plate (Costar) at a density of 2,000 cells/well. The cultures were treated as described above for RPMI 8226 with the following exceptions. After incubation with thymidine the supernatant was carefully removed, and the cells were washed with a 0.5 mM solution of thymidine in phosphate buffered saline. ME180 cells were briefly treated with 50 μl of 2.5% trypsin to dislodge the cells from the plate. AML-193 cells were plated in a 96 well round bottom microtiter plate (Costar) at a density of 1,000 cells/well. To appropriate wells, retinoid test compounds were added at the final concentrations indicated for a final volume of 150 μl/well. The plates were incubated for 96 hours at 37° C. in a humidified atmosphere of 5% CO2 in air. Subsequently, 1 μCi of [5′-^3H]-thymidine (Amersham, U.K., 43 Ci/mmol specific activity) in 25 μl culture medium was added to each well and the cells were incubated for an additional 6 hours.
as §2

SMILES | proliferation of the tumor cell line (incorporation of radioactive labeled thymidine) (RPMI 8226) | proliferation of the tumor cell line (incorporation of radioactive labeled thymidine) (AML-193)
CC1(C)CCC(C)(C)c2c(Br)cc(C(=O)Nc3ccc(C(=O)O)c(F)c3)cc21 [Compound 6] | significant decrease in the proliferation | significant decrease in the proliferation
CC1(C)CCC(C)(C)c2cc(C(=O)Nc3ccc(C(=O)O)c(F)c3)c(O)cc21 [Compound 8] | significant decrease in the proliferation | significant decrease in the proliferation
CC1(C)CC(C)(C)c2cc(C(=O)Nc3ccc(C(=O)O)c(F)c3)cc(Br)c2O1 [Compound 12] | significant decrease in the proliferation | significant decrease in the proliferation
CC1(C)CC(C)(C)c2cc(C(=O)Nc3ccc(C(=O)O)c(F)c3)cc(C(F)(F)F)c2O1 [Compound 14] | significant decrease in the proliferation | significant decrease in the proliferation
CC1(C)CC(C)(C)c2cc(C(=O)Nc3ccc(C(=O)O)c(F)c3)cc(I)c2O1 [Compound 20] | significant decrease in the proliferation | significant decrease in the proliferation
